Patent US20240300987A1, “TRAP1 INHIBITOR AND USE THEREOF” (SMARTIN BIO INC., priority 2021, published 2024)
“Also recorded” adds a separate entry of the source.

How the values were obtained:
HIF1α = assay: Drug activity assay using MIO-M1 HRE/GFP cell line under hypoxia; assay type: cell-based; conditions: for IC50: HIF1α inhibitory activity in MIO-M1 cells, 1% O2 24 hours; for Activity compared to that of SMX: HIF1α inhibition, relative to SMX of the same table
Description: After transfection (jetPRIME kit) of MIO-M1 Müller cells with 5HRE/GFP plasmid (Addgene, #46926), the cells transfected with the plasmid were selected using 1 mg/ml of G418 (Neomycin), a selectable marker. A stable cell line was constructed by selecting cells, growing in a colony form, from single cells. The prepared MIO-M1-HRE/GFP stable cell line was dispensed into a 96-well plate and treated with drugs at different concentrations the next day. After being exposed to a hypoxic environment (1% O2) for 24 hours, the GFP (Ex/Em: 488/507) fluorescence signal was measured using a SYNERGY NEO microplate reader (BioTek Instrument). The relative fluorescence value was calculated on the basis of 100% of the negative control group.

[1] = target: T1, human full-length TRAP1 protein (Homo sapiens, UniProt Q12931); assay: Fluorescence polarization (FP) analysis using SB-TM2 probe (client-binding site); conditions: for IC50: FP analysis using SB-TM2; for Activity compared to that of SMX: TRAP1 binding, relative to SMX of the same table; for binding capacity compared to that of SMX (MitoQ): result in words
T1 construct: containing human full-length TRAP1 protein (400 nM); hexahistidine tag followed by TEV protease cleavage site (N, cleaved yes); made in house; host or cells: E. coli BL21 (DE3)
T1 sequence (Q12931 60-704): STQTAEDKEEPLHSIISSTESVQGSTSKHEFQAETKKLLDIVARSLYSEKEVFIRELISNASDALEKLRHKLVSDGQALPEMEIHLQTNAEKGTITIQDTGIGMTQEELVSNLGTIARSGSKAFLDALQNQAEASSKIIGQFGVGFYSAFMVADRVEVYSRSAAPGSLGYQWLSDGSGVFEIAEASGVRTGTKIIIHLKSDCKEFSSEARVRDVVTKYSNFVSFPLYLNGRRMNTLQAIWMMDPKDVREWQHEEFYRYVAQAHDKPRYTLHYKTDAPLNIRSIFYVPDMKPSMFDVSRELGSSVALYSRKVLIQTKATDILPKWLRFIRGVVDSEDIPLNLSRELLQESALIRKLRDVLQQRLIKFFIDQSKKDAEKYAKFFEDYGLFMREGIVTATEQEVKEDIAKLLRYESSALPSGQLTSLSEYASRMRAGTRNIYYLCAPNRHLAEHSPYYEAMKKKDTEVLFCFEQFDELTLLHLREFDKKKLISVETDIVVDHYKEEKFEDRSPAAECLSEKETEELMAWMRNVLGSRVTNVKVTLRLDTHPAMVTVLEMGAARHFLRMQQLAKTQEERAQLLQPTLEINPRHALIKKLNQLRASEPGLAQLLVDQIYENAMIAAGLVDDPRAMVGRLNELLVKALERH
Description: The substance to be analyzed (at a final volume of 100 μL) was added to FP buffer ([…], 2.7 mM KCl, 4.3 mM Na2HPO4, 1.4 mM KH2PO4 (pH 7.3), 1 mM DTT, 2 mM MgCl2, and 0.1 mg/mL BSA) containing human full-length TRAP1 protein (400 nM) and SB-TM2 probe (100 nM) and then reacted at room temperature for 1 hour (96-well plate). Using a SYNERGY NEO microplate reader, FP was measured at an excitation wavelength set to 440 nm and an emission wavelength set to 500 nm.

22Rv1 cells = assay: In vivo mouse xenograft; parameters: species or system mice; conditions: 3 mg/Kg intraperitoneally daily
Description: Immunodeficient athymic nude mice (male, 8 weeks old) were purchased from OrientBio. The mice were maintained in a pathogen-free facility (12-hour dark/light cycle) at the UNIST In Vivo Research Center and supplied with standard diet and water. All animal experiments were approved by UNIST ([…]-19-11). 22Rv1 cells (1×10^7) were injected subcutaneously into both sides of the nude mice. When the tumor size reached approximately 100 mm^3, 3 mg/Kg drugs (MitoQ, SB-U014, and SB-U015) and vehicle (DMSO) dissolved in 20% cremophor EL (Sigma) in PBS were administered intraperitoneally daily. The tumor volume was measured daily using an electronic caliper and calculated using the following equation: V=½× (width) 2× length. When the experiment was completed, animals were euthanized, and the tumor was collected for histology and western blot. Band intensities were quantified using ImageJ software (National Institute of Health, USA). In this case, western blot was performed in the same manner as described above.

TRAP1 [2] = target: T2, TRAP1 (Homo sapiens, UniProt Q12931); assay: ATPase activity assay (PiColorLock Gold Phosphate Detection Kit); assay type: biochemical; parameters: hexahistidine tag followed by TEV protease cleavage site (N, cleaved yes); made in house; host or cells: E. coli BL21 (DE3); conditions: result in words
T2 sequence (Q12931 60-704): T1 sequence (Q12931 60-704)
Description: The ATPase activity of TRAP1 was measured using the PiColorLock Gold Phosphate Detection Kit (Abcam). Then, 0.5 µM TRAP1 (wild-type or mutation) was pre-incubated along with inhibitors at various concentrations for 30 minutes and then incubated with 0.2 mM ATP at 37° C. for 3 hours in ATPase activity assay buffer containing 50 mM Tris-HCl, 20 mM KCl, and 6 mM MgCl (pH 7.4). Next, 20 µL of a mixture of a PiColorLock Gold reagent and an accelerator (100:1) was added to each sample (100 μL). After 5 minutes of incubation, 10 μL of a stabilizer was added to stop color development. Absorbance was measured at 620 nm using a microplate reader (Synergy NEO, BioTek). The background signal was normalized by subtracting the absorbance of unreacted samples.

TRAP1 [3] = target: T2, TRAP1; assay: Protein expression analysis by western blot in 22Rv1 cells, TRAP1 inhibition markers; assay type: cell-based; parameters: endogenous in cells; host or cells: 22Rv1; conditions: 5 µM of each compound, 2 hours
Description: Human cancer cell line 22Rv1 was purchased from the American Type Culture Collection (ATCC) and maintained as recommended by the supplier. Briefly, cancer cells were incubated in a DMEM or RPMI medium (GIBCO) containing 10% fetal bovine serum (FBS; ATCC) and 1% penicillin/streptomycin (GIBCO) at 37° C. in a humidified atmosphere of 5% CO2. The cells were not incubated for more than 6 months.
The 22Rv1 cells were treated with 5 µM of each compound, cultured for 2 hours, and then analyzed by western blot.
Cell lysates were separated by SDS-PAGE and transferred to a PVDF membrane. The membrane was blocked with 10% skim milk in TBST (TBS containing 0.05% Tween-20) for 1 hour at room temperature and incubated with primary antibodies overnight at 4° C. The membrane was washed with TBST three times for 1 hour and incubated with secondary antibodies (1:5000) diluted in 10% skim milk in TBST for 1 hour. The membrane was washed with TBST three times and visualized using an enhanced chemiluminescence detection kit (BioRad).

OIR mice = assay: Oxygen-induced retinopathy (OIR) model, CD31 whole-mount staining of retina; assay type: in vivo; conditions: intravitreal injection at P12 or eye drop administration P12 to P17
Description: As TRAP1+/+(wild-type), TRAP1+/−(hetero), and TRAP1−/− (knockout) experimental mice, Black6 J strain mice were used. On the 7th day after birth, a baby mouse and a mother mouse were placed in an in vivo chamber (Coy-lab) and supplied with high oxygen (75% O2). On the 12th day after birth, the baby mouse was taken out of the in vivo chamber. Then, a surrogate mother was put thereinto, and normal oxygen (21% O2) was supplied. Then, the eyeball of the baby mouse was removed on the 17th day after birth and used for experiments.
In the process of forming the in vivo oxygen-induced retinopathy (OIR) model, the baby mouse was treated with eye drops for 6 days, from the day when being taken out to normal oxygen after being supplied with high oxygen until the day their eyes were collected (on the 12th day to 17th day after birth). Treatment was performed three times a day at intervals of 4 hours. As a drug treatment method, Mito Q was diluted to a concentration of 1 mM in Liposic and dropped 10 uL into the eyes of the baby mouse. Then, the eyes were allowed to blink for 1 minute. After wiping the residual amount outside the eyeball with a cotton swab, the mouse was returned to the care of the mother mouse. […]

[4] = 22Rv1 xenograft in nude mice, compared to DMSO
[5] = MIO-M1, 24 h, Table 6, alkyl-TPPs

In the case of COc1cc(C)c(CCCCCCCCCC[P+](c2ccccc2)(c2ccccc2)c2ccccc2)cc1OC [SB-U015, (10-(4,5-Dimethoxy-2-methylphenyl)decyl)triphenylphosphonium], the IC50 (HIF1α; MIO-M1, 24 h, Table 9, other synthetic compounds) is reported as 88.7 ± 5.8 nM, the “Activity compared to that of SMX” value (HIF1α; Table 9) is reported as 3.14 and the IC50 ([1]; Table 4, other synthetic compounds) is reported as 1830 ± 285 nM. For the same compound, the “Activity compared to that of SMX” value ([1]; Table 4) was 0.22, the tumor size (22Rv1 cells; [4]) was “the tumor size became smaller” and the tumor weight (22Rv1 cells; [4]) was “the tumor weight decreased”. The “Akt, Cdk4, and Hsp70 in tumors (western blot)” value (22Rv1 cells; 22Rv1 xenograft tumors) was “without causing changes in Akt, Cdk4, and Hsp70”, the “SDHB, SIRT3, p-AMPK and CHOP in tumors (western blot)” value (22Rv1 cells; 22Rv1 xenograft tumors) was “decreases in SDHB and SIRT3, activated AMPK (p-AMPK), and induced the mitochondrial unfolded protein response (CHOP)” and the “TRAP1 ATPase activity with increasing concentration” value (TRAP1 [2]) was “did not show a tendency that the ATPase activity decreased in a concentration-dependent manner”.
With CCCCCCCCCCCCCC[P+](c1ccccc1)(c1ccccc1)c1ccccc1 [TPP-14, Tetradecyltriphenylphosphonium] the IC50 (HIF1α; [5]) was 34 ± 39.2 nM, the “Activity compared to that of SMX” value (HIF1α; Table 6) was 13.76 and the “SDHB and SIRT3 expression (TRAP1 inhibition)” value (TRAP1 [3]) was “strong effects”. The IC50 ([1]; Table 1, alkyl-TPPs) was 384 ± 39.2 nM, the “Activity compared to that of SMX” value ([1]; Table 1) was 1.62 and the “binding capacity compared to that of SMX (MitoQ)” value (from here on “binding capacity compared to that”) [1] was “superior to that of SMX”.
With COC1=C(OC)C(=O)C(C[P+](c2ccccc2)(c2ccccc2)c2ccccc2)=C(C)C1=O [MitoQ^S, ((4,5-Dimethoxy-2-methyl-3,6-dioxocyclohexa-1,4-dien-1-yl)methyl)triphenylphosphonium] the “avascular and neovascular areas in the retina of the OIR model” value (OIR mice) was “both avascular and neovascular areas are significantly reduced; also recorded: significantly reduces both avascular and neovascular areas”.
In the case of CCCCCCCCCCCCCCCC[P+](c1ccccc1)(c1ccccc1)c1ccccc1 [TPP-16, Hexadecyltriphenylphosphonium], the IC50 (HIF1α; [5]) is reported as 30 ± 26 nM, the “Activity compared to that of SMX” value (HIF1α; Table 6) is reported as 15.59 and the “SDHB and SIRT3 expression (TRAP1 inhibition)” value (TRAP1 [3]) is reported as “strong effects”. For the same compound, the IC50 ([1]; Table 1, alkyl-TPPs) was 309 ± 26 nM, the “Activity compared to that of SMX” value ([1]; Table 1) was 2.01 and the “binding capacity compared to that” value [1] was “superior to that of SMX; also recorded: twice as strong as that of SMX”. The “binding capacity compared to that” value ([1]; listed as hexadecyl-TPP) was “superior to that of SMX; also recorded: twice as strong as that of SMX”.
With COc1c(Br)c(C)c(CCCCCCCCCC[P+](c2ccccc2)(c2ccccc2)c2ccccc2)c(OC)c1OC [SB-U011, (10-(3-Bromo-4,5,6-trimethoxy-2-methylphenyl)decyl)triphenylphosphonium] the IC50 (HIF1α; Table 8, other synthetic compounds) was 85.3 ± 8.8 nM, the “Activity compared to that of SMX” value (HIF1α; Table 8) was 6.02 and the IC50 ([1]; Table 3, other synthetic compounds) was 684 ± 72.9 nM. For the same compound, the “Activity compared to that of SMX” value ([1]; Table 3) was 1.156 and the “TRAP1 ATPase activity with increasing concentration” value (TRAP1 [2]) was “did not show a tendency that the ATPase activity decreased in a concentration-dependent manner”.
